Reference: patent US4649160A, “Substituted phenoxy-aminopropanols” (Hoffmann-La Roche Inc., priority 1980, dated 1987)
Counter-ions that a name gives are not always drawn. Like-named read-outs stand apart in the source and are kept apart here.

Legend:
β1-adrenoceptors = target: T1, β1-adrenoceptors (Rattus norvegicus, UniProt P18090); experiment: 50% reduction in isoprenaline-induced tachycardia in rats (β-blocking activity, heart rate); type: in vivo; settings: iv, read-out: ED50 (HR)
T1 construct: measured in rats by determining the dosage in μg/kg i.v. of substance being tested; from tissue; host or cells: living rat (in vivo, i.v. dosing); heart rate response to isoprenaline
T1 sequence (P18090 whole entry): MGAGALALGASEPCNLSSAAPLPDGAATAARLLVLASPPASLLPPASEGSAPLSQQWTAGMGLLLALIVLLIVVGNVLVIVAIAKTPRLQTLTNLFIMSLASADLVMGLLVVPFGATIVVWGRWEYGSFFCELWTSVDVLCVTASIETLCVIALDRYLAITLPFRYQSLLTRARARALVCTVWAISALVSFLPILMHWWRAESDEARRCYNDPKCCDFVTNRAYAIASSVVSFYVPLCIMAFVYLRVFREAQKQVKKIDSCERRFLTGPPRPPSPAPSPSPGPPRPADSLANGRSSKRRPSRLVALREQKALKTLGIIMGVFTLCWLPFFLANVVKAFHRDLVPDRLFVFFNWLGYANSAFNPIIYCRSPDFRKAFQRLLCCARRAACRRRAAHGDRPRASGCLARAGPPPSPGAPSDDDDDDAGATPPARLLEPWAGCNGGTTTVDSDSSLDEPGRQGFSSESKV

β2-adrenoceptors = target: T2, β2-adrenoceptors (Rattus norvegicus, UniProt P10608); experiment: 50% reduction in isoprenaline-induced depressor responses in rats (β-blocking activity, blood pressure); type: in vivo; settings: iv, read-out: ED50 (BP)
T2 construct: measured in rats by determining the dosage in μg/kg i.v. of substance being tested; from tissue; host or cells: living rat (in vivo, i.v. dosing); vascular depressor response to isoprenaline
T2 sequence (P10608 whole entry): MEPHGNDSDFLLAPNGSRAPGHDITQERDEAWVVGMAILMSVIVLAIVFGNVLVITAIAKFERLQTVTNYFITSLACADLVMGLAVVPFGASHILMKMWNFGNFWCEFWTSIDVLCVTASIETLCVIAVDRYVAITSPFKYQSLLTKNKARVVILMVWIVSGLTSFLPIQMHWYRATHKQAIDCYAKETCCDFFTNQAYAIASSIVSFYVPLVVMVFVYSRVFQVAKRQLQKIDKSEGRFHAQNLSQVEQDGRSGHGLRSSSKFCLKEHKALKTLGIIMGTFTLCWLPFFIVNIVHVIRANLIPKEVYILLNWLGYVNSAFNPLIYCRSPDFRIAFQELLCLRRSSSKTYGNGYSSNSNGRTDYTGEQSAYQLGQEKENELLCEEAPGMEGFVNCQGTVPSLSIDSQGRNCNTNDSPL

[1] = rats, i.v., dosage for 50% reduction in isoprenaline-induced tachycardia
[2] = rats, i.v., dosage for 50% reduction in isoprenaline-induced depressor responses

Compound | ED50 (β1-adrenoceptors; [1]) [mg/kg] | ED50 (β2-adrenoceptors; [2]) [mg/kg] | ED50 (β1-adrenoceptors) [mg/kg] | ED50 (β2-adrenoceptors) [mg/kg]
CC(C)NCC(O)COc1ccc(OCCOCCc2ccccc2)cc1Cl (centres unmarked) [1-[2-chloro-4-[2-(phenethyloxy)ethoxy]phenoxy]-3-isopropylamino-2-propanolhydrochloride] | 0.025 | 0.834 | – | –
CC(C)NCC(O)COc1ccc(OCCOCCc2ccc(F)cc2)cc1 (centres unmarked) [1-[4-[2-(4-fluorophenethyloxy)-ethoxy]phenoxy]-3-isopropylamino-2-propanolhydrochloride] | 0.003 | > 2 | – | –
CC(C)NCC(O)COc1ccc(OCCOCCc2ccccc2)cc1.Cl (centres unmarked) [1-isopropylamino-3-[4-(2-phenethyloxyethoxy)phenoxy]-2-propanol hydrochloride] | – | – | 0.015 | > 2
CC(C)(C)NCC(O)COc1ccc(OCCOCCc2ccccc2)cc1.Cl (centres unmarked) [1-tert.butylamino-3-[4-(2-phenethyloxyethoxy)phenoxy]-2-propanol hydrochloride] | – | – | 0.018 | 0.979
